What was measured:
[1] = molecular target: Carbonic anhydrase 9 (Homo sapiens, UniProt Q16790); assay: Inhibition of recombinant human carbonic anhydrase 9 incubated for 15 mins prior to testing measured for 10 to 100 secs by phenol red-based stopped-flow CO2 hydration assay
[2] = tested on: HepG2; assay: Cytotoxicity against human HepG2 cells assessed as reduction in cell viability irradiated with 8 Gy gamma radiation and measured after 24 hrs by MTT assay; format: functional, cell-based; settings: HepG2, light or radiation study
[3] = tested on: WI-38; assay: Cytotoxicity against human WI-38 cells assessed as reduction in cell viability irradiated with 8 Gy gamma radiation and measured after 24 hrs by MTT assay; format: cell-based; settings: WI-38, light or radiation study
[4] = tested on: MCF7; assay: Cytotoxicity against human MCF7 cells assessed as reduction in cell viability irradiated with 8 Gy gamma radiation and measured after 24 hrs by MTT assay; format: functional, cell-based; settings: MCF7, light or radiation study
[5] = tested on: HCT-116; assay: Cytotoxicity against human HCT-116 cells assessed as reduction in cell viability irradiated with 8 Gy gamma radiation and measured after 24 hrs by MTT assay; format: functional, cell-based; settings: HCT-116, light or radiation study
[6] = tested on: WI-38; assay: Cytotoxicity against human WI-38 cells assessed as reduction in cell viability by MTT assay; format: cell-based
[7] = tested on: MCF7; assay: Cytotoxicity against human MCF7 cells assessed as reduction in cell viability by MTT assay; format: functional, cell-based
[8] = tested on: HCT-116; assay: Cytotoxicity against human HCT-116 cells assessed as reduction in cell viability by MTT assay; format: functional, cell-based
[9] = tested on: HepG2; assay: Cytotoxicity against human HepG2 cells assessed as reduction in cell viability by MTT assay; format: functional, cell-based

Row | SMILES | Ki [1] | also measured
1 | Cc1ccccc1NC(=O)CSc1nc2ccc(I)cc2c(=O)n1-c1ccc(S(N)(=O)=O)cc1 | 429 nM | 
2 | Cc1ccc(NC(=O)CSc2nc3ccc(I)cc3c(=O)n2-c2ccc(S(N)(=O)=O)cc2)cc1 | 91.7 nM | 
3 | COc1cc(NC(=O)CSc2nc3ccc(I)cc3c(=O)n2-c2ccc(S(N)(=O)=O)cc2)cc(OC)c1OC | 30.4 nM | 
4 | NS(=O)(=O)c1ccc(-n2c(S)nc3ccc(I)cc3c2=O)cc1 | 2230 nM | 
5 | COc1cc(NC(=O)CSc2nc3ccc(I)cc3c(=O)n2-c2ccc(S(N)(=O)=O)cc2)cc(OC)c1 | 29.1 nM | 
6 | CCc1cccc(NC(=O)CSc2nc3ccc(I)cc3c(=O)n2-c2ccc(S(N)(=O)=O)cc2)c1 | 55.2 nM | 
7 | Cc1cccc(NC(=O)CSc2nc3ccc(I)cc3c(=O)n2-c2ccc(S(N)(=O)=O)cc2)c1 | 244 nM | 
8 | NS(=O)(=O)c1ccc(-n2c(SCC(=O)Nc3ccc([N+](=O)[O-])cc3[N+](=O)[O-])nc3ccc(I)cc3c2=O)cc1 | 46.9 nM | 
9 | COc1ccc(NC(=O)CSc2nc3ccc(I)cc3c(=O)n2-c2ccc(S(N)(=O)=O)cc2)cc1 | 73.2 nM | 
10 | Cc1cc([N+](=O)[O-])ccc1NC(=O)CSc1nc2ccc(I)cc2c(=O)n1-c1ccc(S(N)(=O)=O)cc1 | 59.1 nM | 
11 | CCOc1ccc(NC(=O)CSc2nc3ccc(I)cc3c(=O)n2-c2ccc(S(N)(=O)=O)cc2)cc1 | 34.5 nM | 
12 | CCc1ccc(NC(=O)CSc2nc3ccc(I)cc3c(=O)n2-c2ccc(S(N)(=O)=O)cc2)cc1 | 67.3 nM | 
13 | Cc1cccc([N+](=O)[O-])c1NC(=O)CSc1nc2ccc(I)cc2c(=O)n1-c1ccc(S(N)(=O)=O)cc1 | 90.3 nM | 
14 | NS(=O)(=O)c1ccc(-n2c(SCC(=O)Nc3ccccc3)nc3ccc(I)cc3c2=O)cc1 | 337 nM | 
15 | CCc1ccccc1NC(=O)CSc1nc2ccc(I)cc2c(=O)n1-c1ccc(S(N)(=O)=O)cc1 | 29.1 nM | IC50 [2]: 41 nM; IC50 [3]: 3.15 µM; IC50 [4]: 31 nM; IC50 [5]: 19 nM; IC50 [6]: 5.71 µM; IC50 [7]: 3.07 µM; IC50 [8]: 1940 nM; IC50 [9]: 1780 nM
